# Biological target: T1, rhJAK3 (Homo sapiens, UniProt P52333)
# T1 construct: recombinant purified GST-tagged catalytic domain for each enzyme; purchased Invitrogen PV3855
# Experiment: JAK Biochemical HTRF Assay (JAK3)
# Conditions: recombinant purified GST-tagged catalytic domain, HTRF format, [ATP] 1.7 μM; read-out: JAK3 IC50
# Method: JAK Biochemical HTRF Assay Protocol
# The ability of compounds to inhibit the activity of JAK1, JAK2, JAK3, and TYK2 was measured using a recombinant purified GST-tagged catalytic domain for each enzyme (Invitrogen JAK1 #PV4774, JAK2 #PV4210, JAK3 #PV3855, TYK2 #PV4790) in an HTRF format biochemical assay. The reactions employed a common peptide substrate, LCB-EQEDEPEGDYFEWLW-NH2. The basic assay protocol is as follows: First, […] of diluted compounds in DMSO were dispensed into the wells of a dry 384-well Black plate (Greiner #781076) using a Labcyte Echo 555 acoustic dispenser. Subsequent reagent additions employed a Thermo Multidrop Combi nL. Next, 10 μL of 2× enzyme and 2× substrate in 1× assay buffer (Invitrogen kinase buffer #PV3189, 2 mM DTT, 0.05% BSA) were added to the wells and preincubated for 30 min at room temperature to allow compound binding to equilibrate. After equilibration, 10 μl, of 2×ATP in 1× assay buffer was added to initiate the kinase reaction and the plates were incubated at room temperature for 120 min. At the end of the incubation, 20 μL of 2× stop buffer containing streptavidin-Dylight (Thermo #21845) and Eu-tagged pY20 antibody (Perkin Elmer #AD0067) was added to quench the reaction. Plates were further incubated 60 min at room temperature with shaking and then read on a Perkin Elmer Envision (λex=337 nm, λem=665 and 615 nm, TRF delay time=20 μs). HTRF signal=10,000*665 nm reading/615 nm reading. After normalization to untreated controls, the percent inhibition of the HTRF signal at each compound concentration was calculated. The plot of percent inhibition vs. the log of compound concentration was fit with a 4-parameter dose response equation to calculate IC50 values.
# T1 sequence (P52333 822-1111 limits assumed): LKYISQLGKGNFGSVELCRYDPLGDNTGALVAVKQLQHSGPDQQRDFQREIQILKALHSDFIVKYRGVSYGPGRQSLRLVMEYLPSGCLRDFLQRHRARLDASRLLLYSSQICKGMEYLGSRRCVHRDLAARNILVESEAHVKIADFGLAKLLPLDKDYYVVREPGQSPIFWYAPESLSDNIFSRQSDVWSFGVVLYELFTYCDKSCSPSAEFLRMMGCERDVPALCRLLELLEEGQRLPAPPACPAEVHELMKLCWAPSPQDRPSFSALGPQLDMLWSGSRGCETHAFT
row,IC50 [nM],Structure (SMILES)
1,≤ 1,"C[C@@H](Nc1cncc(-c2c[nH]c3ncc(-c4cccc(CN5CCOCC5)c4)cc23)n1)C(=O)NCC(F)(F)F [Example 15-12, N^2-(6-{5-[3-(morpholin-4-yl-methyl)phenyl]-1H-pyrrolo[2,3-b]-pyridin-3-yl}pyrazin-2-yl)-N-(2,2,2-trifluoroethyl)-D-alaninamide]"
2,10 to 100,"C[C@@H](Nc1cncc(-c2c[nH]c3ncc(CN4CCC(F)C4)cc23)n1)C(=O)NCC(F)(F)F (stereo partly drawn) [Example 15-8, N^2-(6-{5-[(3-fluoropyrrolidin-1-yl)-methyl]-1H-pyrrolo[2,3-b]pyridin-3-yl}-pyrazin-2-yl)-N-(2,2,2-trifluoroethyl)-D-alaninamide]"
3,1 to 10,"CC(C)[C@@H](Nc1cncc(-c2c[nH]c3ncc(F)cc23)n1)C(=O)NCC(F)(F)F [Example 16-1, N^2-[6-(5-fluoro-1H-pyrrolo[2,3-b]pyridin-3-yl)pyrazin-2-yl]-N-(2,2,2-trifluoroethyl)-D-valinamide]"

# Same assay, conditions: recombinant purified GST-tagged catalytic domain, HTRF format, [ATP] 1.7 μM; read-out: rhJAK3 IC50
row,IC50 [nM],Structure (SMILES)
1,10 to 100,"N#CCNC(=O)Cc1cncc(-c2c[nH]c3ncc(Cl)cc23)n1 [Example 8-4, 2-[6-(5-chloro-1H-pyrrolo[2,3-b]-pyridin-3-yl)pyrazin-2-yl]-N-(cyanomethyl)acetamide]"
2,1 to 10,"NC(=O)C1(Oc2cncc(-c3c[nH]c4ncc(Cl)cc34)n2)CC1 [Example 6-1, 1-{[6-(5-chloro-1H-pyrrolo[2,3-b]pyridin-3-yl)pyrazin-2-yl]oxy}cyclopropane-carboxamide]"
3,1 to 10,"O=C(NCC(F)(F)F)C1(Oc2cncc(-c3c[nH]c4ncc(Cl)cc34)n2)CC1 [Example 6, 1-{[6-(5-Chloro-1H-pyrrolo[2,3-b]pyridin-3-yl)pyrazin-2-yl]oxy}-N-(2,2,2-trifluoroethyl)-cyclopropanecarboxamide]"

# More lines, now with the values behind:
row,Structure (SMILES),IC50 [nM]
1,"C[C@@H](Nc1cncc(-c2c[nH]c3ncc(Cl)cc23)n1)C(=O)N[C@H](CO)Cc1ccc(O)cc1 [Example 2-18, N^2-[6-(5-chloro-1H-pyrrolo[2,3-b]-pyridin-3-yl)pyrazin-2-yl]-N-[(1S)-2-hydroxy-1-(4-hydroxybenzyl)-ethyl]-D-alaninamide]",100 to 1000
2,"C[C@@H](Nc1cncc(-c2c[nH]c3ncc(Cl)cc23)n1)C(=O)NCc1ccc(C(F)(F)F)cc1 [Example 2-21, N^2-[6-(5-chloro-1H-pyrrolo[2,3-b]-pyridin-3-yl)pyrazin-2-yl]-N-[4-(trifluoromethyl)benzyl]-D-alaninamide]",100 to 1000
3,"C[C@@H](Nc1cncc(-c2c[nH]c3ncc(Cl)cc23)n1)C(=O)NCc1cccs1 [Example 2-10, N^2-[6-(5-chloro-1H-pyrrolo[2,3-b]-pyridin-3-yl)pyrazin-2-yl]-N-(thiophen-2-ylmethyl)-D-alaninamide]",100 to 1000
4,"CC(C)(C)OC(=O)N1CCN(c2cncc(-c3c[nH]c4ncc(Cl)cc34)n2)[C@@H](C(=O)NCC(F)(F)F)C1 [Example 1-13, tert-butyl (3R)-4-[6-(5-chloro-1H-pyrrolo[2,3-b]pyridin-3-yl)pyrazin-2-yl]-3-[(2,2,2-trifluoroethyl)carbamoyl]-piperazine-1-carboxylate]",1 to 10
5,"C[C@@H](Nc1cncc(-c2c[nH]c3ncc(Cl)cc23)n1)C(=O)NCc1ccc(N)cc1 [Example 2-14, N-(4-aminobenzyl)-N^2-[6-(5-chloro-1H-pyrrolo[2,3-b]pyridin-3-yl)pyrazin-2-yl]-D-alaninamide]",100 to 1000
6,"CC(Cc1cccnc1)NC(=O)[C@@H](C)Nc1cncc(-c2c[nH]c3ncc(Cl)cc23)n1 (stereo partly drawn) [Example 2-9, N^2-[6-(5-chloro-1H-pyrrolo[2,3-b]-pyridin-3-yl)pyrazin-2-yl]-N-(l - methyl-2-pyridin-3-ylethyl)-D-alaninamide]",100 to 1000
7,"C[C@@H](Nc1cncc(-c2c[nH]c3ncc(Cl)cc23)n1)C(=O)NCCc1cn[nH]c1 [Example 2-7, N^2-[6-(5-chloro-1H-pyrrolo[2,3-b]-pyridin-3-yl)pyrazin-2-yl]-N-[2-(1H-pyrazol-4-yl)ethyl]-D-alaninamide]",100 to 1000

# — patent publication US20130040933A1, “AZAINDOLES AS JANUS KINASE INHIBITORS” (priority 2010, published 2013)
